“And” between values parts separate entries of the source, which are not always exact repeats. Equal entries are not always repeated.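 The compound was tested at five concentrations on cells cultured in 96-well plates, with a 48-hour exposure period. GI50 is the concentration that inhibits growth by half. The concentration for full growth arrest is given as TGI.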 Bounds are passed on as bounds.

Some test systems named below: DMS 273 small cell lung; DLD-1 colon; DMS 114 small cell lung; RXF-631 renal; M19-MEL melanoma; LXFL 529 NSCLC; XF 498 CNS; HOP-18 NSCLC; MDA-N.
What all share (experiment): inhibition of tumour cell growth, NCI panel, 48 h

As to `COC(=O)/C=C1/CCC2[C@@H](C(=O)CC3[C@]2(C)CCC[C@@]3(C)C(=O)OC)C1C` (stereo partly drawn), the TGI came to 29.8 µM in the experiment with DMS 273 small cell lung; 37.1 µM in the experiment on DLD-1 colon; 24.8 µM with DMS 114 small cell lung; 30.9 µM in the experiment with RXF-631 renal; 31.2 µM in the experiment with M19-MEL melanoma; 20.8 µM with LXFL 529 NSCLC. Also, the figures for the TGI in the experiment with XF 498 CNS and with HOP-18 NSCLC were 30.3 µM and 27.5 µM, respectively.
With `Cc1cc(O)cc2oc(=O)c3c(O)cc(O)cc3c12`, the TGI is 58.2 µM with DMS 273 small cell lung; greater than 100 µM with DLD-1 colon; 86.1 µM in the experiment on DMS 114 small cell lung; greater than 100 µM in the experiment with M19-MEL melanoma; greater than 100 µM in the experiment with LXFL 529 NSCLC; 59.3 µM in the experiment on XF 498 CNS. The molecule further came in with a TGI in the experiment with HOP-18 NSCLC greater than 100 µM.
For the molecule `CCOC(C)C(/C=N/NC(N)=S)=NNC(N)=S` (stereo not drawn), the TGI in the experiment on DLD-1 colon, with M19-MEL melanoma and with LXFL 529 NSCLC was greater than 100 µM each time.
For the molecule `[O-]c1c2c(nn1-c1ccccc1)c1ccccc1c[n+]2Cc1ccccc1`, the TGI in the experiment on DMS 273 small cell lung, in the experiment on DLD-1 colon, in the experiment with DMS 114 small cell lung, in the experiment with RXF-631 renal, in the experiment on M19-MEL melanoma and in the experiment on LXFL 529 NSCLC was greater than 100 µM each time. Moreover, the TGI in the experiment with XF 498 CNS and with HOP-18 NSCLC was greater than 100 µM throughout.
In the case of `Cc1ccc(NC(=O)C(=O)C2C(=O)N(c3ccccc3)N=C2N)cc1C` (stereo not drawn), the TGI in the experiment with DMS 273 small cell lung, in the experiment with DLD-1 colon, in the experiment on DMS 114 small cell lung, in the experiment on RXF-631 renal, with M19-MEL melanoma and with LXFL 529 NSCLC was greater than 100 µM throughout. In addition, the TGI with XF 498 CNS and in the experiment with HOP-18 NSCLC was greater than 100 µM throughout.
Turning to `CN(C)CCNC(=O)c1cc2ccccc2c2nc3ccccc3nc12`, the TGI with DMS 273 small cell lung is greater than 100 µM; in the experiment with DLD-1 colon it was 3.59 µM; in the experiment on DMS 114 small cell lung it was 2.43 µM; in the experiment on M19-MEL melanoma, 2.67 µM; in the experiment on LXFL 529 NSCLC, greater than 22.3 µM; with HOP-18 NSCLC it was greater than 22.9 µM.
As to `CC1=NN(c2ccccc2)C(=O)C1=C1SCCS1`, the TGI in the experiment with DMS 273 small cell lung is greater than 100 µM; in the experiment with DLD-1 colon, greater than 57.9 µM; in the experiment with DMS 114 small cell lung, greater than 67.7 µM; in the experiment on RXF-631 renal, greater than 100 µM; in the experiment with M19-MEL melanoma, greater than 100 µM; in the experiment on LXFL 529 NSCLC, greater than 100 µM. Besides, the TGI in the experiment with XF 498 CNS and in the experiment with HOP-18 NSCLC was greater than 100 µM in each case.
Turning to `CC(=O)[CH-]C(=O)c1ccccc1.CC(=O)[CH-]C(=O)c1ccccc1.CC[O-].CC[O-].[Zr+4]`, the GI50 in the experiment on DLD-1 colon, with LXFL 529 NSCLC and in the experiment with HOP-18 NSCLC was greater than 100 µM in each case. In addition, the TGI in the experiment with DLD-1 colon, with LXFL 529 NSCLC and in the experiment on HOP-18 NSCLC was greater than 100 µM throughout.
`COc1ccc(CCN2C(=O)C=CC2=O)cc1OC` showed a TGI in the experiment with MDA-N of 33.5 µM.
With `O=S(=O)(O)O.[NH-]C1CCCCC1[NH-].[Pt+2]` (stereo not drawn), the results for the GI50 in the experiment with DLD-1 colon, with M19-MEL melanoma and in the experiment with LXFL 529 NSCLC were 27.8 µM, greater than 100 µM and greater than 100 µM, respectively. Moreover, the TGI with DLD-1 colon, in the experiment on M19-MEL melanoma and with LXFL 529 NSCLC was greater than 100 µM each time.
With `COc1cc(C2=NN(C)C(c3ccc([N+](=O)[O-])o3)C2)cc(OC)c1OC` (stereo not drawn), the TGI in the experiment with DMS 273 small cell lung, with DLD-1 colon, with DMS 114 small cell lung, in the experiment on RXF-631 renal, in the experiment on M19-MEL melanoma and in the experiment with LXFL 529 NSCLC was greater than 100 µM in each case. The molecule further had a TGI in the experiment with HOP-18 NSCLC greater than 100 µM.
With `CC1(C)COC(C23C4C5C2C2C3C4C52I)=N1` (stereo not drawn), the TGI in the experiment on DLD-1 colon, with DMS 114 small cell lung, in the experiment with M19-MEL melanoma, in the experiment on LXFL 529 NSCLC, in the experiment with XF 498 CNS and with HOP-18 NSCLC was greater than 100 µM each time.
With `COC(=O)C1=C(O)c2cc(OC)c(OC)c(OC)c2[C@H](c2cc(OC)c(OC)c(OC)c2)C1C(=O)OC` (stereo partly drawn), the TGI in the experiment with DMS 273 small cell lung was 51.4 µM; in the experiment on DLD-1 colon, greater than 100 µM; in the experiment with DMS 114 small cell lung, 87.7 µM; in the experiment with RXF-631 renal, 97.2 µM; in the experiment on LXFL 529 NSCLC, greater than 100 µM; in the experiment with XF 498 CNS, greater than 100 µM.
For the molecule `CCCCCCCCCCCCCC(=O)O[C@H]1CC[C@H](NC(=O)[C@H](OC)[C@H](O)[C@@H](O)[C@H](O)/C=C/C(C)C)C(=O)NC1`, the GI50 was less than 0.001 µM with DMS 273 small cell lung; less than 0.001 µM in the experiment on DMS 114 small cell lung; 0.0165 µM with MDA-N; 0.0245 µM in the experiment on M19-MEL melanoma; 0.00512 µM with LXFL 529 NSCLC; greater than 51.2 µM with HOP-18 NSCLC. The TGI in the experiment with DMS 273 small cell lung is 0.0303 µM; in the experiment with MDA-N, 44.7 µM and 12.1 µM; with M19-MEL melanoma it was 8.23 µM; in the experiment with LXFL 529 NSCLC, 7.26 µM; with XF 498 CNS, 0.305 µM; in the experiment on HOP-18 NSCLC, greater than 51.2 µM.
Turning to `C/C(CC(=O)Nc1ccc(Cl)c(Cl)c1)=N/NC(=O)C[n+]1ccccc1`, the TGI in the experiment with DMS 273 small cell lung was greater than 100 µM; in the experiment on DMS 114 small cell lung, 66.1 µM; in the experiment with M19-MEL melanoma, greater than 100 µM; in the experiment on LXFL 529 NSCLC, greater than 100 µM; with XF 498 CNS, greater than 100 µM; with HOP-18 NSCLC, greater than 100 µM.
Consider `Cc1ccc(NC(=O)CCC(CC(=O)C(C)(C)C)=NNC(=O)C(=O)NN)cc1C`, for which the TGI in the experiment on DMS 273 small cell lung, in the experiment on DLD-1 colon, in the experiment on M19-MEL melanoma, in the experiment on LXFL 529 NSCLC, in the experiment with XF 498 CNS and in the experiment on HOP-18 NSCLC was greater than 100 µM in each case.
As for `CCOC(=O)C12CCCC1(O)N(NC(=O)c1ccccc1)C(C)=C2C(=O)OC` (stereo not drawn), the TGI with DMS 273 small cell lung, with M19-MEL melanoma, with LXFL 529 NSCLC and in the experiment on HOP-18 NSCLC was greater than 100 µM each time.

Values taken from PubChem BioAssay (NCI).
